From ChEMBL document CHEMBL5696442, “Discovery of type II inhibitors of TGFβ-activated kinase 1 (TAK1) and mitogen-activated protein kinase kinase kinase kinase 2 (MAP4K2)” (J Med Chem, 2015) come the findings set out here.

Each structure is given as a SMILES string. Calls of active or inactive are those of the source. The rule behind the calls is not given here.

In experiment [1] the target is T1, Serine/threonine-protein kinase D1 (Homo sapiens) (UniProt Q15139).
T1 sequence (whole entry): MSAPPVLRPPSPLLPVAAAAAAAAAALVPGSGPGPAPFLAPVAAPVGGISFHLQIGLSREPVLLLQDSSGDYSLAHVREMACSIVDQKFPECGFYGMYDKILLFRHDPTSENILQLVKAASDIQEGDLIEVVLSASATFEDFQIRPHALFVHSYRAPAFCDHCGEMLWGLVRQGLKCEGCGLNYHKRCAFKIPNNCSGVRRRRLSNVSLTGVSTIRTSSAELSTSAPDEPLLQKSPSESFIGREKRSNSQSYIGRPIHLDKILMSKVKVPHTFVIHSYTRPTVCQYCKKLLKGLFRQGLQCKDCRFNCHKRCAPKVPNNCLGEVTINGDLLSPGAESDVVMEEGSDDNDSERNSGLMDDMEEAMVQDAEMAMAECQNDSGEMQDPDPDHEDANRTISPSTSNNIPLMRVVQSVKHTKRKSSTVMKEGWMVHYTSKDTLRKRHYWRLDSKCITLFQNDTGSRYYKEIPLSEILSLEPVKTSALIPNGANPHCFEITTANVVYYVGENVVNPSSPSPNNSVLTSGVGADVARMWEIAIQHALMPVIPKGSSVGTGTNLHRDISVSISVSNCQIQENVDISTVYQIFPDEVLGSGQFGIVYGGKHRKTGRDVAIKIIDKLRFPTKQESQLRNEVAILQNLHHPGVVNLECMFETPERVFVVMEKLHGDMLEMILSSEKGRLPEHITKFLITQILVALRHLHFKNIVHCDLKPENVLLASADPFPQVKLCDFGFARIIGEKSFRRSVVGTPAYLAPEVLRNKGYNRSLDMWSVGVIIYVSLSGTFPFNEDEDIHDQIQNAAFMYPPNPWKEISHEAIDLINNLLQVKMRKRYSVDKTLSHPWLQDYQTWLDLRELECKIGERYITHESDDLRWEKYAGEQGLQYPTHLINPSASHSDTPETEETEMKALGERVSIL
The experiment is described as follows: Inhibition of PKD1 Lys1 labeling site in human A-375 cells at 5 uM by KiNativ Profiling analysis relative to control. The experiment is classed as cell-based.

Experiment [2] addresses Tyrosine-protein kinase Fes/Fps (Homo sapiens, UniProt P07332). The experiment is described as follows: Inhibition of FES (unknown origin) at 1 uM by Ambit Kinomescan binding assay relative to control; values are per cent of control.
For experiment [3], the target named is Serine/threonine-protein kinase MRCK gamma (Homo sapiens) (UniProt Q6DT37). The experiment is described as follows: Inhibition of DMPK2 (unknown origin) at 1 uM by Ambit Kinomescan binding assay relative to control; values are per cent of control.
In experiment [4] the test system is Receptor-type tyrosine-protein kinase FLT3 (Homo sapiens), P36888 [D835Y]. The experiment in a line: Inhibition of FLT3 D835Y mutant (unknown origin) at 1 uM by Ambit Kinomescan binding assay relative to control; values are per cent of control.
Experiment [5] deals with T2, Mitogen-activated protein kinase kinase kinase 5 (Homo sapiens) (UniProt Q99683).
T2 sequence (whole entry): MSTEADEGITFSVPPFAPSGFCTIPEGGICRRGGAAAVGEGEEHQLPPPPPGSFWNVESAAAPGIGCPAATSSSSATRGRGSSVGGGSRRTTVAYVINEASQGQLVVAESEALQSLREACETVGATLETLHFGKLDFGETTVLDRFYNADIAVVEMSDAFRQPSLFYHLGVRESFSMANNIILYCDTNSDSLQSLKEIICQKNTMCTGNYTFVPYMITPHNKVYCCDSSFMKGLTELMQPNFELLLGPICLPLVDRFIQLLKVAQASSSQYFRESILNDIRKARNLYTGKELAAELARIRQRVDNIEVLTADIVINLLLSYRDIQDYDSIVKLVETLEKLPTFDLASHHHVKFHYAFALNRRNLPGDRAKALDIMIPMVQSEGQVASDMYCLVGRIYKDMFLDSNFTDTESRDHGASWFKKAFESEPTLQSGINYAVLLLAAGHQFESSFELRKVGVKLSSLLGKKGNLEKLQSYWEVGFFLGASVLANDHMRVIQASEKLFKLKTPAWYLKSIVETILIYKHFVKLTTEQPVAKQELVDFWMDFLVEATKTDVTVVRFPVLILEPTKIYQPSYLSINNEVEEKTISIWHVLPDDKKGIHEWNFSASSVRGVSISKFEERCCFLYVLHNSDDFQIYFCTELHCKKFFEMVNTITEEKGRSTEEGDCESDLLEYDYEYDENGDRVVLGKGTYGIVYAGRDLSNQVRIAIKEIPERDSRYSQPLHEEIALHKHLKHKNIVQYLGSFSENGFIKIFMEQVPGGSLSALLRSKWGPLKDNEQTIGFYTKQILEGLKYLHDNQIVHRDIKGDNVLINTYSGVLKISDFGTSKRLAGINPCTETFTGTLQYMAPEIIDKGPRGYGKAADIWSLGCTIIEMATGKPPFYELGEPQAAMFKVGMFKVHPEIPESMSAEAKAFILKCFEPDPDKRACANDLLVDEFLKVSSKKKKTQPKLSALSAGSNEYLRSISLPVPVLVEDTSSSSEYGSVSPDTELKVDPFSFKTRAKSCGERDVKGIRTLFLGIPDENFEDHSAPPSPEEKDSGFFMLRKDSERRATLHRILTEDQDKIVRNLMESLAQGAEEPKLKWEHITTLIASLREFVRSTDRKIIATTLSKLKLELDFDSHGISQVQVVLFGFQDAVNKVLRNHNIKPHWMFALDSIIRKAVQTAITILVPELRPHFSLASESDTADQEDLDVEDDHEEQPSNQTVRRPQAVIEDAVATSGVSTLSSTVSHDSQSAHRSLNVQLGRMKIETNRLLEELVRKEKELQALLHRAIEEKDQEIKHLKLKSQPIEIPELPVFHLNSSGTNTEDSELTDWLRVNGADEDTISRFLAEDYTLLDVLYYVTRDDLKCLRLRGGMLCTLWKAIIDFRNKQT
The experiment in a line: Inhibition of ASK1 (unknown origin) at 10 uM by Ambit Kinomescan binding assay.

Experiment [6] has as its target Serine/threonine-protein kinase B-raf (Homo sapiens, UniProt P15056). The experiment is described as follows: Inhibition of BRAF (unknown origin) at 10 uM by Ambit Kinomescan binding assay relative to control.
Experiment [7] deals with Mitogen-activated protein kinase 4 (Homo sapiens) (UniProt P31152). The experiment is described as follows: Inhibition of ERK4 (unknown origin) at 10 uM by Ambit Kinomescan binding assay.
Experiment [8] deals with DNA-PK/Ku70/Ku85 (Homo sapiens) (UniProt P78527+P12956+P13010). The experiment is described as follows: Inhibition of DNAPK ATP labeling site harbouring KGGSWIQEINVAEKNWYPR in human A-375 cells at 5 uM by KiNativ Profiling analysis relative to control. The experiment is classed as cell-based.
In experiment [9] the target is Ribosomal protein S6 kinase alpha-3 (Homo sapiens) (UniProt P51812). The experiment is described as follows: Inhibition of RSK2 domain1 Lys2 labeling site in human Huh-7 cell lysate at 1 uM by KiNativ Profiling analysis relative to control. In kind it is subcellular.
Ribosomal protein S6 kinase alpha-3 (Homo sapiens), sequence (P51812 whole entry, the tested form may be a part): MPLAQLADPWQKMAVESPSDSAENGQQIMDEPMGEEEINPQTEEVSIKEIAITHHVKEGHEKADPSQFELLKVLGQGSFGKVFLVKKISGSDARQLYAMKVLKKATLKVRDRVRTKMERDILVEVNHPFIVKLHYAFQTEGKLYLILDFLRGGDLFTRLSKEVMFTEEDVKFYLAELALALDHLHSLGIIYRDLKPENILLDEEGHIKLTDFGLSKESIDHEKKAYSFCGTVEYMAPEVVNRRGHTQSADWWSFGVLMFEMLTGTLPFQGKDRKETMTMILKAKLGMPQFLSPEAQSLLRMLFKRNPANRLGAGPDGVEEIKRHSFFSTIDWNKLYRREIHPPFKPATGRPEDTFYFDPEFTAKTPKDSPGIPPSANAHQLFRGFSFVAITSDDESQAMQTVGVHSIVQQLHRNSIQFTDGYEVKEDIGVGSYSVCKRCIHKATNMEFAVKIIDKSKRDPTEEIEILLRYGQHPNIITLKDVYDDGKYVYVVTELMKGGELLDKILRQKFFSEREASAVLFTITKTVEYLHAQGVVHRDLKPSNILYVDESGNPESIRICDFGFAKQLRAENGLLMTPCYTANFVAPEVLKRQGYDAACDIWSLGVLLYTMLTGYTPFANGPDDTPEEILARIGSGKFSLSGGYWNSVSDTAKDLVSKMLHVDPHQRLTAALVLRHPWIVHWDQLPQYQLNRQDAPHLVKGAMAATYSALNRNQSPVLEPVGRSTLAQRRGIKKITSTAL

Serine/threonine-protein kinase MRCK gamma (Homo sapiens), sequence (Q6DT37 whole entry): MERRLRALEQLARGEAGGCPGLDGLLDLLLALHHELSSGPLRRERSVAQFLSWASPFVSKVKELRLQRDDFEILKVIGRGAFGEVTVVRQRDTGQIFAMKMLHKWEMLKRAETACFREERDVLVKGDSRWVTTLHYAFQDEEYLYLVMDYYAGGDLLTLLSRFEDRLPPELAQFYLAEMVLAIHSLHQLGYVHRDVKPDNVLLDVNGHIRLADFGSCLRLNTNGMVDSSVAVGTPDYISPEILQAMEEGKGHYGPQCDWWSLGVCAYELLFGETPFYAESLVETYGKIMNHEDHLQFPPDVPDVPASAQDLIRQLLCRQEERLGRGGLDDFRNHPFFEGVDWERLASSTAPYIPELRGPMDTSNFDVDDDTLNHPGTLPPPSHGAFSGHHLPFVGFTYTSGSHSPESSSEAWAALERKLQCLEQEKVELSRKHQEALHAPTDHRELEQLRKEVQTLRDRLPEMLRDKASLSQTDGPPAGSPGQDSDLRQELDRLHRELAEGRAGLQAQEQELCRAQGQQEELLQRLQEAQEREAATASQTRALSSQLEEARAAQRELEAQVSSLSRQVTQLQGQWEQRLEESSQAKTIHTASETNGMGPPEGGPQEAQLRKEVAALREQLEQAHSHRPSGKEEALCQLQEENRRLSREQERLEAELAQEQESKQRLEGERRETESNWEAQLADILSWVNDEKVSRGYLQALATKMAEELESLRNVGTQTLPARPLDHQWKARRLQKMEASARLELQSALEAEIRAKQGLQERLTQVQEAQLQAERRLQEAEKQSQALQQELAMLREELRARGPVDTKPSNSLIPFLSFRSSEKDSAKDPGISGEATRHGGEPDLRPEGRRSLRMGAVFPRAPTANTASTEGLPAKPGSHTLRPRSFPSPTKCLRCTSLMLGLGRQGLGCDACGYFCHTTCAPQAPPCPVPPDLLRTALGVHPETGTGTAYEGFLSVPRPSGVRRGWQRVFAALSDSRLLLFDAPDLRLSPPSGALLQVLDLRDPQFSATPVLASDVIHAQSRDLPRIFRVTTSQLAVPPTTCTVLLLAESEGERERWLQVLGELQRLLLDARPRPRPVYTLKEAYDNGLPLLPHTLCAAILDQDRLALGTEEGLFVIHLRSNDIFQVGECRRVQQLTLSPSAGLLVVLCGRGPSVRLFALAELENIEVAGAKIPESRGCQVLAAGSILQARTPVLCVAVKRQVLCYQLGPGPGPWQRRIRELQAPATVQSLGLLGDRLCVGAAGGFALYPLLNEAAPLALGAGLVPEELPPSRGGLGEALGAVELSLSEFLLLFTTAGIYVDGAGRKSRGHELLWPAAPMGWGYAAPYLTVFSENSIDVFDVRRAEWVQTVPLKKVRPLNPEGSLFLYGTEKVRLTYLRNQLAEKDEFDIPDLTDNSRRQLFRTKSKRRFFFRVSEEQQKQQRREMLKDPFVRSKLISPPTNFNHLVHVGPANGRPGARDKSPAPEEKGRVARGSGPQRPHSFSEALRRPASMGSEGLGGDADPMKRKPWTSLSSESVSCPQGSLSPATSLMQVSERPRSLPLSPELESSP
Mitogen-activated protein kinase 4 (Homo sapiens), sequence (P31152 whole entry): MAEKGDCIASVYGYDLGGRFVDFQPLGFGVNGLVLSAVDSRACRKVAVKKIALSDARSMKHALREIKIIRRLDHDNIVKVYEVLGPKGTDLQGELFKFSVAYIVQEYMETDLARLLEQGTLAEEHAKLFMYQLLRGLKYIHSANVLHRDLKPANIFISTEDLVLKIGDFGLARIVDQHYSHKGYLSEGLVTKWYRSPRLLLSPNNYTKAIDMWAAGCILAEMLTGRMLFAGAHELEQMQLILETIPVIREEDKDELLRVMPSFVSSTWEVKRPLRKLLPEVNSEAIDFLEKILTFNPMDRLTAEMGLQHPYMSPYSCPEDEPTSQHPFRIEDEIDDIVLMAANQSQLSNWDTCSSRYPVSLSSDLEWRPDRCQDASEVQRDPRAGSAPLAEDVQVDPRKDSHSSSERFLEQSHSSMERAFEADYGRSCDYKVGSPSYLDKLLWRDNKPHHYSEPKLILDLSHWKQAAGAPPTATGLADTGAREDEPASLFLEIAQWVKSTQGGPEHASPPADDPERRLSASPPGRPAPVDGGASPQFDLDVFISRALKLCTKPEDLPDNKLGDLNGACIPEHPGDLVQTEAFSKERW
Serine/threonine-protein kinase B-raf, sequence (P15056 whole entry): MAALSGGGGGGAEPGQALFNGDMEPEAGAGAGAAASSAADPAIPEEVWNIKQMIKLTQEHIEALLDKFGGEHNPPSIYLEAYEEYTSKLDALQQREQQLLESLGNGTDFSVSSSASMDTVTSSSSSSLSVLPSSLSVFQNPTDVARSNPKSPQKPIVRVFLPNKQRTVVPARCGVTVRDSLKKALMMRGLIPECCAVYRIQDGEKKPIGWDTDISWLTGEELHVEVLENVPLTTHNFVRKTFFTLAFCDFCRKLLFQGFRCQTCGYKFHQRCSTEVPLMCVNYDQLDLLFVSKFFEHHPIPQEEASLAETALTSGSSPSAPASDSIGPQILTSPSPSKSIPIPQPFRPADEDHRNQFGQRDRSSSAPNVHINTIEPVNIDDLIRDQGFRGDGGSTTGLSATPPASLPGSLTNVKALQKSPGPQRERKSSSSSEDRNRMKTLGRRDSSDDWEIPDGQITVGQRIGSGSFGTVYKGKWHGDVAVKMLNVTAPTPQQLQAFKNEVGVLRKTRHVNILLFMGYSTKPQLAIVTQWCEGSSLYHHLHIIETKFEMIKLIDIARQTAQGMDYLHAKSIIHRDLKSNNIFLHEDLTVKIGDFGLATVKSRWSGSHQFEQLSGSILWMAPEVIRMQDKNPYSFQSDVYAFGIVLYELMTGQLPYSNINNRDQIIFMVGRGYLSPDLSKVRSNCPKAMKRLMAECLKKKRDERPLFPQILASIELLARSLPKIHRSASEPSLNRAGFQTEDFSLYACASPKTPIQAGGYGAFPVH
Tyrosine-protein kinase Fes/Fps, sequence (P07332 whole entry): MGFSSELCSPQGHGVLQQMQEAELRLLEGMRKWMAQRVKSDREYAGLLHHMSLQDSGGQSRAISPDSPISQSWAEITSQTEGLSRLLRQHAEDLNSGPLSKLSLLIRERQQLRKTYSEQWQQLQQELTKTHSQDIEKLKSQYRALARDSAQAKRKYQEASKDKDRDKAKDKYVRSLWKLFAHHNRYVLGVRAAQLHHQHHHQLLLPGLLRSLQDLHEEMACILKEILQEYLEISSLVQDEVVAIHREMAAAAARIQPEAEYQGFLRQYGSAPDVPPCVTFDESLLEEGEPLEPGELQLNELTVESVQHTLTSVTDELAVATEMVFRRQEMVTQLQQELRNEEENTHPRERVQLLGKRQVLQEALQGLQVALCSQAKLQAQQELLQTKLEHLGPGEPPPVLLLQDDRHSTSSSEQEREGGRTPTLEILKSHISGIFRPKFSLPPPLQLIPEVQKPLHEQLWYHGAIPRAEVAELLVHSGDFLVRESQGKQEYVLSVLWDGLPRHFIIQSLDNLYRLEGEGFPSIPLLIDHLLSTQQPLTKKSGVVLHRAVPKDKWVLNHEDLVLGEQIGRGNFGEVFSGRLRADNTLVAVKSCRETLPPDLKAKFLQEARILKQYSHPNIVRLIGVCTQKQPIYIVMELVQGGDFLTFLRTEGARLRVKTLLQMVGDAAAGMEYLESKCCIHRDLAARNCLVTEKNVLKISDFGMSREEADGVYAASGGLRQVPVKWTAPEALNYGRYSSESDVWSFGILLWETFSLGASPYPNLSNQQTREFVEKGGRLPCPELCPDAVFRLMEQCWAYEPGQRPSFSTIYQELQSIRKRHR

The term inhibition denotes the change of the read-out against control, counted positive when it falls. What is called residual activity is the activity still measured, relative to the control. Low values mean a large loss of activity, high ones a small loss of activity. On to `CCN1CCN(Cc2ccc(NC(=O)c3ccc(C)c(/C=C/c4cnc5[nH]ccc5c4OC)c3)cc2C(F)(F)F)CC1`, for which the inhibition in experiment [1] was -9.9%. The residual activity turned out to be 6.8% in experiment [2], 76% in experiment [3] and 6.8% in experiment [4].

Consider `CCN1CCN(Cc2ccc(NC(=O)c3ccc(C)c(Oc4ccnc5[nH]ccc45)c3)cc2C(F)(F)F)CC1`, for which the inhibition entry in experiment [5] and in experiment [7] was “inactive” in each case. Further, the inhibition was 9.1% in experiment [6] and 7.9% in [8].

With `CNc1cc(Oc2cc(C(=O)Nc3cc(N4CCN(C)CC4)cc(C(F)(F)F)c3)ccc2C)ncn1`, the inhibition in experiment [9] turned out to be 20.7%.
